Test results taken from US11071746B2, “Compositions and methods for protecting organs from ischemia/reperfusion injury associated with transplantation” (THE TRUSTEES OF THE UNIVERSITY OF PENNSYLVANIA, priority 2016, dated 2021).

Legend:
[1] = tested on: COX-2; test: qRT-PCR gene expression in EVLP lung tissues: COX-2; settings: aerosolized instillation, human EVLP lung tissues
Protocol: (§1) GENE EXPRESSION LEVEL OF THE NRF2-REGULATED STRESS RESPONSE ENZYME HO-1: In a separate study (EVLP #4), SDG (LGM2605) was instilled only in one lung (right) while vehicle control was instilled in the contralateral lung (FIG. 4). The concentration of the drug (200 mg/lung) was kept the same as above. […] A drop in the left lung may reflect action of SDG (LGM2605) on that lung through the perfusate (we have shown above that some of the drug appears into the systemic circulation).
GENE EXPRESSION LEVELS OF THE COX-2 (AN ENZYME PROMOTING INFLAMMATION AND PAIN) DECREASE IN HUMAN LUNG (EVLP) TISSUES TREATED WITH LGM2605 (SDG): Cyclo-oxygenease-2 is an enzyme responsible for the formation of prostanoids such as thromboxane and prostanglandins. Pharmacological inhibition of COX can provide relief from symptoms of inflammation and pain. […] A drop in the vehicle-treated lung may reflect action of the drug via the perfusate (systemic circulation—FIG. 8).

[2] = tested on: hemeoxygenase-1 (HO-1); test: qRT-PCR gene expression in EVLP lung tissues: HO-1; set-up: species or system human; settings: EVLP #4, 200 mg/lung instilled in right lung, vehicle in contralateral lung
Protocol: as §1

[3] = tested on: GSTMu1; test: qRT-PCR gene expression in EVLP lung tissues: GSTM1; set-up: species or system human; settings: EVLP #4, treated lung vs vehicle-treated lung, 120' sampling time
Protocol: as §1
(§2) GENE EXPRESSION LEVELS OF THE NRF2-REGULATED ANTIOXIDANT ENZYMES NQO1 AND GSTM1 INCREASE IN HUMAN LUNG (EVLP) TISSUES TREATED WITH LGM2605 (SDG): Nrf2 is a transcription factor that regulates the expression of antioxidant and cytoprotective genes such as NQO-1 and GSTMu1. […] Our findings confirm that SDG boosts endogenous antioxidant defenses in human lung tissues during ischemia (FIG. 6).

[4] = tested on: NQO-1; test: qRT-PCR gene expression in EVLP lung tissues: NQO1; set-up: species or system human; settings: EVLP #4, treated lung vs vehicle-treated lung, 120' sampling time
Protocol: as §1, §2

[5] = tested on: IL-1β; test: qRT-PCR gene expression in EVLP lung tissues: IL-1β; set-up: species or system human; settings: EVLP #4, treated right lung vs vehicle-treated lung
Protocol: as §1
(§3) Our findings confirm that SDG decreases inflammatory parameters in human lung tissues during ischemia.

[6] = tested on: IL-6; test: qRT-PCR gene expression in EVLP lung tissues: IL-6; set-up: species or system human; settings: EVLP #4, treated right lung vs vehicle-treated lung
Protocol: as §1, §3

[7] = LC/MS/MS drug levels in lung tissue, BALF and perfusate during ex vivo lung perfusion (EVLP); set-up: species or system human
Protocol: (§4) Donor lungs were offered to our lung-transplantation program through our local organ procurement organization (Gift of Life) and were de-identified. Donor lungs that met the entry criteria (i.e., non-transplantable) were retrieved, delivered to our center by means of standard cold-storage transport in a low-potassium dextran solution (Perfadex, Vitrolife), and perfused in the EVLP system for 3-6 hours. Lungs were considered suitable for transplantation if during EVLP the PO2:FIO2 ratio—that is, the partial pressure of oxygen ex vivo (PO2) to the fraction of inspired oxygen (FIO2)—was 350 mm Hg or more and if deterioration from baseline levels of all three physiological measurements (pulmonary vascular resistance, dynamic compliance, and peak inspiratory pressure) was less than 15% while the lungs were ventilated with the use of a tidal volume of 7 ml per kilogram of donor body weight and a rate of 7 breaths per minute during the perfusion period (FIG. 1)
(§5) Technique: The acellular EVLP technique has been described in detail elsewhere (Cypel et al., N Engl J Med. 2011 Apr. 14; 364(15):1431-40). After 3-6 hours of EVLP, the lungs were cooled to 4° C. over a period of 10 minutes. Thereafter, perfusion and ventilation were stopped (with FIO2 changed to 0.21 for the purpose of lung storage), and the trachea was clamped at full inspiration to maintain the lungs in a state of inflation. The lungs were then stored at 4° C. in Perfadex until transplantation.
LGM2605 (SDG) ACCUMULATES IN HUMAN LUNG TISSUES: Using LC/MS/MS analytical methodologies, we determined synthetic SDG (LGM2605) levels in left and right lung tissues, in bronchoalveolar lavage fluid (BALF) and perfusate fluid over multiple time points spanning from 30 minutes post aerosolized instillation of 200 mg drug/lung, to 360 minutes (FIG. 2). Of importance is that aerosolized SDG (LGM2605) (i.e, instilled in airways), leaks into the systemic circulation and can be detected in the perfusate for at least 240 minutes. Importantly, levels in lung tissue biopsies show a peak of drug by 120 minutes, persisting for up to 240 minutes. Additionally, levels in BALF persist beyond 360 min.

[8] = tested on: human donor lungs; test: Ex vivo functional assessment (oxygenation, compliance) of EVLP human donor lungs; settings: aerosolized drug, EVLP #3 human lung
Protocol: as §4, §5
Ex Vivo Functional Assessment: For the functional assessment ex vivo, tidal volume was set at 10 ml per kilogram of donor body weight and 10 breaths per minute, with FIO2 at 1.0. Lung function was evaluated hourly during EVLP according to the following calculations: PO2=[left atrial PO2−pulmonary-artery PO2 (in mm Hg)], and pulmonary vascular resistance=[(pulmonary-artery pressure-left atrial pressure)×80]÷pulmonary-artery flow (in dynes·seconds·cm^−5), dynamic compliance (in milliliters per centimeter of water), and peak inspiratory pressure (in centimeters of water). […]

[9] = aerosolized instillation of 200 mg drug/lung, human EVLP lungs, lung tissue biopsies

- HO-1 gene expression change [2]: drop
- persistence of drug levels in BALF ([7]; aerosolized instillation of 200 mg drug/lung, human EVLP lungs, BALF): > 360 min
- persistence of drug levels in lung tissue biopsies [7, 9]: up to 240 minutes
- time of peak of drug in lung tissue biopsies [7, 9]: ≤ 120 min
- time drug can be detected in the perfusate ([7]; aerosolized instillation of 200 mg drug/lung, human EVLP lungs, perfusate): at least 240 minutes
- accumulation in lung ([7]; regardless of route of delivery (inhaled or intravenous)): accumulates in lung
SMILES: COc1cc(C[C@@H](CO[C@@H]2O[C@H](CO)[C@@H](O)[C@H](O)[C@H]2O)[C@H](CO[C@@H]2O[C@H](CO)[C@@H](O)[C@H](O)[C@H]2O)Cc2ccc(O)c(OC)c2)ccc1O [LGM2605, secoisolariciresinol diglucoside]
- COX-2 gene expression change [1]: blocks entirely
- time to entire block of COX-2 expression after instillation [1]: ≤ 50 min
- GSTMu1 gene expression change [3]: robust increase
- NQO-1 gene expression change [4]: robust increase
- IL-1β gene expression change [5]: significantly reduced
- IL-6 gene expression change [6]: significantly reduced
- dynamic compliance [8]: improving
- static compliance [8]: improving
- P/F ratio (oxygenation) after treatment ([8]; improved from 200 before drug): > 350
